Holding throughout (assay): microscale thermophoresis
Common to all, as to conditions: EWSR1-C mutant; read-out: binding constants
(In MST a laser heats a spot of the sample, and binding alters the fluorescence response.)

Assay [1] addresses T1, EWSR1-C (GFP-EWSR1-C) (Homo sapiens, UniProt Q01844, T393A).
T1 construct: C-terminal region 301-656 (contains RNA recognition motif 353-453), GFP fusion, overexpressed in HEK293T, lysate
T1 sequence (Q01844 301-656 T393A): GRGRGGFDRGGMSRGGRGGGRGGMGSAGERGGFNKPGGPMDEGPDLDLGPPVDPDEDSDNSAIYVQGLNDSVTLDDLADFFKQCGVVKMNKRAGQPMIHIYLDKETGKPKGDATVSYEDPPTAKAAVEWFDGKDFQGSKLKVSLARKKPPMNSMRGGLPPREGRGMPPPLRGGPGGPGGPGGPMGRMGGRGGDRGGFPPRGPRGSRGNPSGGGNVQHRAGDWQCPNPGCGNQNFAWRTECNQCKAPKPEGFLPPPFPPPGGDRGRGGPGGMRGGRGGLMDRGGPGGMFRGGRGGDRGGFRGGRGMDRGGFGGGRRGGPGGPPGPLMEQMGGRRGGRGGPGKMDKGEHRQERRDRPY
On the procedure: (§1) microscale thermophoresis on EWSR1-C (GFP-EWSR1-C) | The binding affinity of HHT to these EWSR1 mutants was assessed through MST

For assay [2], the target named is T2, EWSR1-C (GFP-EWSR1-C) (Homo sapiens, UniProt Q01844, M397A).
T2 construct: C-terminal region 301-656 (contains RNA recognition motif 353-453), GFP fusion, overexpressed in HEK293T, lysate
T2 sequence (Q01844 301-656 M397A): T1 sequence (Q01844 301-656 T393A) with A93T, M97A
On the procedure:
as §1

Assay [3] addresses T3, EWSR1-C (GFP-EWSR1-C) (Homo sapiens, UniProt Q01844, I400A).
T3 construct: C-terminal region 301-656 (contains RNA recognition motif 353-453), GFP fusion, overexpressed in HEK293T, lysate
T3 sequence (Q01844 301-656 I400A): T1 sequence (Q01844 301-656 T393A) with A93T, I100A
As to the method:
as §1

For assay [4], the target named is T4, EWSR1-C (GFP-EWSR1-C) (Homo sapiens, UniProt Q01844, P396A).
T4 construct: C-terminal region 301-656 (contains RNA recognition motif 353-453), GFP fusion, overexpressed in HEK293T, lysate
T4 sequence (Q01844 301-656 P396A): T1 sequence (Q01844 301-656 T393A) with A93T, P96A
On the procedure:
as §1

The results in this text go back to paper PMC12747546, “Homoharringtonine suppresses acute myeloid leukemia progression by orchestrating EWSR1 phase separation in an m^6A‐YTHDF2‐dependent mechanism” (iMeta, 2025).

Changes are numbered by the printed parent chain.

On to `COC(=O)C[C@](O)(CCCC(C)(C)O)C(=O)O[C@@H]1C(OC)=C[C@]23CCCN2CCc2cc4c(cc2[C@H]13)OCO4` [Homoharringtonine], for which the Kd was found to be 81 µM on EWSR1-C (GFP-EWSR1-C) [1], 9.75 µM on EWSR1-C (GFP-EWSR1-C) [2], 35.7 µM on EWSR1-C (GFP-EWSR1-C) [3] and 94.6 µM at EWSR1-C (GFP-EWSR1-C) [4].
